From BindingDB's records for doi:10.1016/j.bioorg.2017.03.012 (Alexandria University, 2017)

Legend:
[1] = biological target: T1, Polyunsaturated fatty acid 5-lipoxygenase (Homo sapiens, UniProt P09917); assay: In Vitro Lipoxygenase (LOX) Inhibitory Assay
T1 sequence (P09917 whole entry): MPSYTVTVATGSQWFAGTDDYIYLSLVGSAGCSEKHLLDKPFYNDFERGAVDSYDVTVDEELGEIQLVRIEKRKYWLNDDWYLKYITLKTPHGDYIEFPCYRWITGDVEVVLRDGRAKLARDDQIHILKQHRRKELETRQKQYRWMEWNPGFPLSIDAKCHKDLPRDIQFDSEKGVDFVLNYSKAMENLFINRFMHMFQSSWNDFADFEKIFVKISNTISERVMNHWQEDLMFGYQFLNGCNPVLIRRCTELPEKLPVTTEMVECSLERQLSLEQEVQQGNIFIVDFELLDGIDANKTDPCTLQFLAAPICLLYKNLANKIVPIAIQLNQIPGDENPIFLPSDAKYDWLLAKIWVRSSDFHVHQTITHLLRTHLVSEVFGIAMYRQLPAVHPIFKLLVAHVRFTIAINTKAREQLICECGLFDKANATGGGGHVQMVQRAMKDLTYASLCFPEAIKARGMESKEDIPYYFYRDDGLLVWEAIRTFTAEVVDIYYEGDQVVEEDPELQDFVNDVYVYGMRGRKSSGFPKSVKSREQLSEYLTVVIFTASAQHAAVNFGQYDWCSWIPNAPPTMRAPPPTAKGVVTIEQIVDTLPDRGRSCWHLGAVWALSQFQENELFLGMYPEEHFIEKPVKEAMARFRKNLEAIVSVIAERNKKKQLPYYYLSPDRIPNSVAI
Experimental: All the newly synthesized compounds were also evaluated in vitro for their ability to inhibit lipoxygenase enzyme. This was carried out using Abnova lipoxygenase inhibitor screening assay kit (Catalog No. (KA1329). Inhibitors were dissolved in DMSO and were added to the assay in a final volume of 10 μl before initiating with substrate. Three concentrations were prepared (25, 50 and 100 μM) and the concentration that produced 50% enzyme inhibition was determined according to manufacturer instructions [Plačkov et al., Free Radic. Biol. Med., 97:223-235].

[2] = biological target: T2, Prostaglandin G/H synthase 2 (Ovis aries, UniProt P79208); assay: In Vitro COX-1 and COX-2 Inhibitory Assay
T2 sequence (P79208 whole entry): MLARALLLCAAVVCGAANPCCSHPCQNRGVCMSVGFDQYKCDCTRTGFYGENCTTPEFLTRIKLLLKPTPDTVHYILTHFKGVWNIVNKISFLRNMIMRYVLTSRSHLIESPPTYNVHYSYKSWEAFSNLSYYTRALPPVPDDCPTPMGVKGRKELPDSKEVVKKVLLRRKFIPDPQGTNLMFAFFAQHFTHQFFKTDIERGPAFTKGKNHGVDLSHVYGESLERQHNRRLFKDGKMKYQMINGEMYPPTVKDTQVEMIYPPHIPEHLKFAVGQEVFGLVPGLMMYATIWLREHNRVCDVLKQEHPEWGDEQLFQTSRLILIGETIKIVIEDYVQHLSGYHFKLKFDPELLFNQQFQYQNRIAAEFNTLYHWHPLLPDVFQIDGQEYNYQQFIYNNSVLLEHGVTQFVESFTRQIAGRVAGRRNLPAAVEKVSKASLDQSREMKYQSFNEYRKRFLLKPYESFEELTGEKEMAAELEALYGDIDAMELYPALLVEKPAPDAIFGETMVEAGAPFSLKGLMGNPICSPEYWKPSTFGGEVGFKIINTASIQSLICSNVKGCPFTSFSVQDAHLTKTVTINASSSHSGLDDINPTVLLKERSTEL

[3] = biological target: T3, Prostaglandin G/H synthase 1 (Ovis aries, UniProt P05979); assay: In Vitro COX-1 and COX-2 Inhibitory Assay
T3 sequence (P05979 whole entry): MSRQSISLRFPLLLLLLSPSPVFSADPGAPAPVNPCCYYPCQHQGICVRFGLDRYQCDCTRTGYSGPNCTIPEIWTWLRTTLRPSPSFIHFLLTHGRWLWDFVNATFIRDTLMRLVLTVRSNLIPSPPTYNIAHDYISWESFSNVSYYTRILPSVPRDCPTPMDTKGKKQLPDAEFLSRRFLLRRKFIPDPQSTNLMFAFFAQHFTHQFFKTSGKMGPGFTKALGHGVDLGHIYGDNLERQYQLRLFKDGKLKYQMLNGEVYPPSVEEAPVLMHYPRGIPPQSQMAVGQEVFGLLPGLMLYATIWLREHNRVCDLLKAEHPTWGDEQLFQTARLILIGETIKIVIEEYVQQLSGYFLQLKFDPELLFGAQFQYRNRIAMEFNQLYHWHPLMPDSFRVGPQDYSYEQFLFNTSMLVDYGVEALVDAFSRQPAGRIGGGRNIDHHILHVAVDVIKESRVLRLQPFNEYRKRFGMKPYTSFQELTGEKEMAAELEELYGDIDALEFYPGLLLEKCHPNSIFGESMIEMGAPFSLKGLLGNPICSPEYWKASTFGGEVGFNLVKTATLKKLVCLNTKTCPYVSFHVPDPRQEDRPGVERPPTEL

Row | Compound | IC50 [1] | IC50 [2] | IC50 [3]
1 | Cc1ccc(Cl)c(Nc2ccccc2C(=O)O)c1Cl | 5.64 µM | – | –
2 | O=C(NN1C(=O)CSC1=S)c1sc2ccccc2c1Cl [3-Chloro-N-(4-oxo-2-thioxothiazolidin-3-yl)benzo[b]thiophene-2-carboxamide (4)] | 6.87 µM | 2430 nM | 8.7 µM
3 | COc1ccc(-c2nn(-c3ccccc3)cc2/C=C2\SC(=S)N(NC(=O)c3sc4ccccc4c3Cl)C2=O)cc1 [3-Chloro-N-(5-{[3-(4-methoxyphenyl)-1-phenyl-1H-pyrazol-4-yl]methylene}-4-oxo-2-thioxothiazolidin-3-yl)benzo[b]thiophene-2-carboxamide (5b)] | 8.71 µM | 2610 nM | 7.6 µM
4 | O=C1Nc2ccccc2/C1=C1\SC(=S)N(NC(=O)c2sc3ccccc3c2Cl)C1=O [3-Chloro-N-[4-oxo-5-(2-oxoindolin-3-ylidene)-2-thioxothiazolidin-3-yl]benzo[b]thiophene-2-carboxamide (5i)] | 6.87 µM | 1560 nM | 5.9 µM
5 | COc1ccc(/C=C2\SC(=S)N(NC(=O)c3sc4ccccc4c3Cl)C2=O)cc1OC [3-Chloro-N-[5-(3,4-dimethoxybenzylidene)-4-oxo-2-thioxothiazolidin-3-yl]benzo [b]thiophene-2-carboxamide (5h)] | – | – | 3.4 µM
6 | O=C(NN1C(=O)/C(=C/c2ccc(Cl)cc2)SC1=S)c1sc2ccccc2c1Cl [3-Chloro-N-[5-(4-chlorobenzylidene)-4-oxo-2-thioxothiazolidin-3-yl]benzo[b]thiophene-2-carboxamide (5f)] | 3.74 µM | 1230 nM | 4.9 µM
7 | COc1cc(/C=C2\SC(=S)N(NC(=O)c3sc4ccccc4c3Cl)C2=O)ccc1O [3-Chloro-N-[5-(4-hydroxy-3-methoxybenzylidene)-4-oxo-2-thioxothiazolidin-3-yl]benzo [b]thiophene-2-carboxamide (5g)] | 6.91 µM | 4220 nM | 10.4 µM
8 | COc1ccc(/C=C2\SC(=S)N(NC(=O)c3sc4ccccc4c3Cl)C2=O)cc1 [3-Chloro-N-[5-(4-methoxybenzylidene)-4-oxo-2-thioxothiazolidin-3-yl]benzo[b]thiophene-2-carboxamide (5e)] | 4.97 µM | 1890 nM | 6.3 µM

Further lines, results first:

Row | IC50 [1] | IC50 [2] | IC50 [3] | Compound
9 | 3.97 µM | 1490 nM | 5.1 µM | O=C(NN1C(=O)/C(=C/c2cn(-c3ccccc3)nc2-c2ccccc2)SC1=S)c1sc2ccccc2c1Cl [3-Chloro-N-{5-[(1,3-diphenyl-1H-pyrazol-4-yl)methylene]-4-oxo-2-thioxothiazolidin-3-yl}benzo[b]thiophene-2-carboxamide (5a)]
10 | 6.87 µM | – | – | Cc1ccc(-c2cc(C(F)(F)F)nn2-c2ccc(S(N)(=O)=O)cc2)cc1 [Celecoxib]
11 | 5.92 µM | 1830 nM | 6.8 µM | O=C(NN1C(=O)CSC1=S)c1cc2ccccc2o1 [N-(4-Oxo-2-thioxothiazolidin-3-yl)benzofuran-2-carboxamide (9)]
12 | 8.74 µM | 3120 nM | 10.6 µM | O=C(NN1C(=O)/C(=C/c2ccccc2)SC1=S)c1sc2ccccc2c1Cl [N-(5-Benzylidene-4-oxo-2-thioxothiazolidin-3-yl)-3-chlorobenzo[b]thiophene-2-carboxamide (5d)]
13 | 9.51 µM | 4880 nM | 12.4 µM | O=C(NN1C(=O)/C(=C/c2cn(-c3ccccc3)nc2-c2ccc(Br)cc2)SC1=S)c1sc2ccccc2c1Cl [N-(5-{[3-(4-Bromophenyl)-1-phenyl-1H-pyrazol-4-yl]methylene}-4-oxo-2-thioxothiazolidin-3-yl)-3-chlorobenzo[b]thiophene-2-carboxamide (5c)]
14 | 10.2 µM | 5320 nM | 13.4 µM | O=C(NN1C(=O)/C(=C/c2cn(-c3ccccc3)nc2-c2ccc(Br)cc2)SC1=S)c1cc2ccccc2o1 [N-(5-{[3-(4-Bromophenyl)-1-phenyl-1H-pyrazol-4-yl]methylene}-4-oxo-2-thioxothiazolidin-3-yl)benzofuran-2-carboxamide (10c)]
15 | 6.91 µM | 2740 nM | 8.7 µM | COc1ccc(-c2nn(-c3ccccc3)cc2/C=C2\SC(=S)N(NC(=O)c3cc4ccccc4o3)C2=O)cc1 [N-(5-{[3-(4-Methoxyphenyl)-1-phenyl-1H-pyrazol-4-yl]methylene}-4-oxo-2-thioxothiazolidin-3-yl)benzofuran-2-carboxamide (10b)]
16 | 9.21 µM | 4810 nM | 12.4 µM | O=C(NN1C(=O)/C(=C/c2cn(-c3ccccc3)nc2-c2ccccc2)SC1=S)c1cc2ccccc2o1 [N-{5-[(1,3-Diphenyl-1H-pyrazol-4-yl)methylene]-4-oxo-2-thioxothiazolidin-3-yl}benzofuran2-carboxamide (10a)]
